According to PubChem BioAssay AID1845195 (Molecular Pharmacology Branch, DTP, NCI, 2023):
pIC50: −log10 of the molar value.

System: 156681-154-R-J1 tumor spheroid viability
Assay: Anticancer human tumor 156681-154-R-J1 patient-derived melanoma cell line growth inhibition
Details: spheroids with HUVEC and MSC; for pIC50: curve of first compound; for viability, T/C: stronger effect = lower value
How it was run: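 Single agents and combinations were tested on spheroids built from tumor cells plus HUVEC and hMSC, at half-log dilutions starting at or near clinical Cmax, else 10 microM; final DMSO 0.25% (v/v).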

[1] = second compound 30 pM, first compound 0.0316 µM
[2] = second compound 30 pM, first compound 0.1 µM
[3] = second compound 30 pM, first compound 0.316 µM
[4] = second compound 30 pM, first compound 1 µM
[5] = second compound 30 pM, first compound 3.16 µM
[6] = second compound 30 pM, first compound 10 µM
[7] = second compound 94.9 pM, first compound 0.0316 µM
[8] = second compound 94.9 pM, first compound 0.1 µM
[9] = second compound 94.9 pM, first compound 0.316 µM
[10] = second compound 94.9 pM, first compound 1 µM
[11] = second compound 94.9 pM, first compound 3.16 µM
[12] = second compound 94.9 pM, first compound 10 µM
[13] = second compound 0.0003 µM, first compound 0.0316 µM
[14] = second compound 0.0003 µM, first compound 0.1 µM
[15] = second compound 0.0003 µM, first compound 0.316 µM
[16] = second compound 0.0003 µM, first compound 1 µM
[17] = second compound 0.0003 µM, first compound 3.16 µM
[18] = second compound 0.0003 µM, first compound 10 µM
[19] = second compound 0.000949 µM, first compound 0.0316 µM
[20] = second compound 0.000949 µM, first compound 0.1 µM
[21] = second compound 0.000949 µM, first compound 0.316 µM
[22] = second compound 0.000949 µM, first compound 1 µM
[23] = second compound 0.000949 µM, first compound 3.16 µM
[24] = second compound 0.000949 µM, first compound 10 µM
[25] = second compound 0.003 µM, first compound 0.0316 µM
[26] = second compound 0.003 µM, first compound 0.1 µM
[27] = second compound 0.003 µM, first compound 0.316 µM
[28] = second compound 0.003 µM, first compound 1 µM
[29] = second compound 0.003 µM, first compound 3.16 µM
[30] = second compound 0.003 µM, first compound 10 µM
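Further: spheroids exposed to compounds for 7 days before readout.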
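Wherever viability, T/C is given: percent of vehicle control viability where 100% = DMSO-treated spheroids.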

Row | SMILES | pIC50 (second compound 30 pM) | pIC50 (second compound 94.9 pM) | pIC50 (second compound 0.0003 µM) | pIC50 (second compound 0.000949 µM) | pIC50 (second compound 0.003 µM) | viability, T/C [1] [%] | viability, T/C [2] [%] | viability, T/C [3] [%] | viability, T/C [4] [%] | viability, T/C [5] [%] | viability, T/C [6] [%] | viability, T/C [7] [%] | viability, T/C [8] [%] | viability, T/C [9] [%] | viability, T/C [10] [%] | viability, T/C [11] [%] | viability, T/C [12] [%] | viability, T/C [13] [%] | viability, T/C [14] [%] | viability, T/C [15] [%] | further results
1 | CC(C)n1c(=O)n(C)c2cnc3cc(F)c(-c4ccc(OCCCN5CCCCC5)nc4)cc3c21 + COc1cc2c(cc1O)CCNC21CSC2c3c(OC(C)=O)c(C)c4c(c3C(COC1=O)N1C(O)C3Cc5cc(C)c(OC)c(O)c5C(C21)N3C)OCO4 | < 5.00 | < 5.00 | 5.32 | > 7.50 | > 7.50 | 101 | 120 | 87.2 | 105 | 104 | 90.3 | 106 | 91.1 | 103 | 95 | 108 | 73.5 | 66.9 | 63.5 | 61.7 | viability, T/C [16]: 65.7%; viability, T/C [17]: 85.7%; viability, T/C [18]: 15.9%; viability, T/C [19]: 6.13%; viability, T/C [20]: 2.85%; viability, T/C [21]: 4.29%; viability, T/C [22]: 3.82%; viability, T/C [23]: 4.41%; viability, T/C [24]: 0.77%; viability, T/C [25]: 0.23%; viability, T/C [26]: 0.23%; viability, T/C [27]: 0.24%; viability, T/C [28]: 0.22%; viability, T/C [29]: 0.18%; viability, T/C [30]: 0.24%
2 | CC1COCCN1c1cc(-c2ccnn2C)c2ccnc(-c3ccn[nH]3)c2n1 (stereo not given) + COc1cc2c(cc1O)CCNC21CSC2c3c(OC(C)=O)c(C)c4c(c3C(COC1=O)N1C(O)C3Cc5cc(C)c(OC)c(O)c5C(C21)N3C)OCO4 | 6.72 | 6.98 | > 7.50 | > 7.50 | > 7.50 | 96.4 | 62.2 | 39.9 | 29.9 | 27.3 | 22.6 | 78.7 | 50.7 | 33.6 | 30 | 22.1 | 21.9 | 49.5 | 41.1 | 23.9 | viability, T/C [16]: 20.6%; viability, T/C [17]: 21.3%; viability, T/C [18]: 20.1%; viability, T/C [19]: 6.51%; viability, T/C [20]: 2.7%; viability, T/C [21]: 4.04%; viability, T/C [22]: 3.29%; viability, T/C [23]: 0.29%; viability, T/C [24]: 0.17%; viability, T/C [25]: 0.23%; viability, T/C [26]: 0.22%; viability, T/C [27]: 0.16%; viability, T/C [28]: 0.13%; viability, T/C [29]: 0.14%; viability, T/C [30]: 0.25%
3 | COc1cc(C)[nH]c(=O)c1CN1CCc2c(Cl)cc(C(OC)C3COC3)c(Cl)c2C1=O (stereo not given) + COc1cc2c(cc1O)CCNC21CSC2c3c(OC(C)=O)c(C)c4c(c3C(COC1=O)N1C(O)C3Cc5cc(C)c(OC)c(O)c5C(C21)N3C)OCO4 | < 5.00 | < 5.00 | < 5.00 | > 7.50 | > 7.50 | 88.8 | 112 | 94.9 | 93.3 | 92.6 | 120 | 90.9 | 98.3 | 106 | 116 | 106 | 98.1 | 77.9 | 82.3 | 87.7 | viability, T/C [16]: 80.1%; viability, T/C [17]: 73.3%; viability, T/C [18]: 67.2%; viability, T/C [19]: 6.81%; viability, T/C [20]: 5.99%; viability, T/C [21]: 5.88%; viability, T/C [22]: 5.47%; viability, T/C [23]: 3.42%; viability, T/C [24]: 2.93%; viability, T/C [25]: 0.33%; viability, T/C [26]: 0.34%; viability, T/C [27]: 0.33%; viability, T/C [28]: 0.41%; viability, T/C [29]: 0.38%; viability, T/C [30]: 0.48%
4 | COc1ccc([C@@H](O)c2cc(-c3ncnc4cc(N5CCOCC5)ccc34)c(F)cc2Cl)nn1 + COc1cc2c(cc1O)CCNC21CSC2c3c(OC(C)=O)c(C)c4c(c3C(COC1=O)N1C(O)C3Cc5cc(C)c(OC)c(O)c5C(C21)N3C)OCO4 | 5.01 | 5.29 | 6.37 | > 7.50 | > 7.50 | 118 | 107 | 88.5 | 84.7 | 64 | 49.5 | 108 | 92 | 89.9 | 69.5 | 55.9 | 41.5 | 83.5 | 79.5 | 54.1 | viability, T/C [16]: 32.4%; viability, T/C [17]: 4.29%; viability, T/C [18]: 0.28%; viability, T/C [19]: 5.23%; viability, T/C [20]: 2.87%; viability, T/C [21]: 0.68%; viability, T/C [22]: 0.1%; viability, T/C [23]: 0.07%; viability, T/C [24]: 0.18%; viability, T/C [25]: 0.27%; viability, T/C [26]: 0.3%; viability, T/C [27]: 0.22%; viability, T/C [28]: 0.18%; viability, T/C [29]: 0.16%; viability, T/C [30]: 0.28%
